This note sets out measurements from patent publication US11827627B2, “N-(hydroxyalkyl (hetero)aryl) tetrahydrofuran carboxamides as modulators of sodium channels” (VERTEX PHARMACEUTICALS INCORPORATED, priority 2021, dated 2023).

Some results are limits rather than exact numbers.

This experiment concerns the target human NaV 1.8 (Homo sapiens, UniProt Q9Y5Y9). Briefly: E-VIPR assay detecting and measuring NaV inhibition properties. Format: cell-based. The settings on record: HEK cells expressing a truncated form of human NaV 1.8; electrical stimulation, membrane potential FRET dyes. An excerpt: E-VIPR Assay Detecting and Measuring NaV Inhibition Properties
Sodium ion channels are voltage-dependent proteins that can be activated by inducing membrane voltage changes by applying electric fields. The electrical stimulation instrument and methods of use, referred to as E-VIPR, are described in International Publication No. WO 2002/008748 A3 and C.-J. Huang et al. Characterization of voltage-gated sodium channel blockers by electrical stimulation and fluorescence detection of membrane potential, 24 Nature Biotech. 439-46 (2006), both of which are incorporated by reference in their entirety. The instrument comprises a microtiter plate handler, an optical system for exciting the coumarin dye while simultaneously recording the coumarin and oxonol emissions, a waveform generator, a current- or voltage-controlled amplifier, and parallel electrode pairs that are inserted into assay plate wells. Under integrated computer control, this instrument passes user-programmed electrical stimulus protocols to cells within the wells of the microtiter plate.
16-20 hours prior to running the assay on E-VIPR, HEK cells expressing a truncated form of human NaV 1.8 with full channel activity were seeded into microtiter 384-well plates, pre-coated with matrigel, at a density of 25,000 cells per well. 2.5-5% KIR2.1 Bacmam virus was added to the final cell suspension before seeding into cell plates. HEK cells were grown in Dulbecco's Modified Eagle's Medium (DMEM) supplemented with 10% FBS (Fetal Bovine Serum, qualified; Sigma #F4135), 1% NEAA (Non-Essential Amino Acids, Gibco #11140), 1% HEPES (Gibco #15630), 1% Pen-Strep (Penicillin-Streptomycin; Gibco #15140) and 5 μg/ml Blasticidin (Gibco #R210-01). Cells were expanded in vented cap cell culture flasks, with 90-95% humidity and 5% CO2.
Reagents and Stock Solutions:
100 mg/mL Pluronic F-127 (Sigma #P2443), in dry DMSO
Compound Plates: Corning 384-well Polypropylene Round Bottom #3656
Cell Plates: 384-well tissue culture treated plates (Greiner #781091-2B)
2.5-5% KIR 2.1 Bacmam virus (produced in-house), prepared as described in Section 3.3 of J. A. Fornwald et al., Gene Expression in Mammalian Cells Using BacMam, a Modified Baculovirus System, 1350 Methods in Molecular Biology 95-116 (2016), the entire contents of which are incorporated by reference. The concentration used can be dependent on viral titer of each batch.
5 mM DiSBAC6(3), a voltage sensitive oxonol acceptor (CAS number 169211-44-3; 5-[3-(1,3-dihexylhexahydro-4,6-dioxo-2-thioxo-5-pyrimidinyl)-2-propen-1-ylidene]-1,3-dihexyldihydro-2-thioxo-4,6(1H,5H)-pyrimidinedione), in dry DMSO. The preparation of DiSBAC6(3) is analogous to that of DiSBAC4(3) as described in Voltage Sensing by Fluorescence Resonance Energy Transfer in Single Cells, Gonzalez, J. E. and Tsien, R. Y. (1995) Biophys. J. 69, 1272-1280.
5 mM CC2-DMPE, a commercially available membrane-bound coumarin phospholipid FRET donor (ThermoFisher Scientific catalog number K1017, CAS number 393782-57-5; tetradecanoic acid, 1,1′-[(1R)-1-[8-(6-chloro-7-hydroxy-2-oxo-2H-1-benzopyran-3-yl)-3-hydroxy-3-oxido-8-oxo-2,4-dioxa-7-aza-3-phosphaoct-1-yl]-1,2-ethanediyl]ester) was prepared in dry DMSO. See also, Improved indicators of cell membrane potential that use fluorescence resonance energy transfer, Gonzalez, J. E. and Tsien, R. Y. (1997) Chem. Biol. 4, 269-277.
Voltage Assay Background Suppression Compound (VABSC-1) is prepared in H2O (89-363 mM, range used to maintain solubility)
Human Serum (HS, Millipore #S1P1-01KL, or Sigma SLBR5469V and SLBR5470V as a 50%/50% mixture, for 25% assay final concentration)
Bath 1 Buffer: • Sodium Chloride 160 mM (9.35 g/L), Potassium Chloride, 4.5 mM (0.335 g/L), Glucose 10 mM (1.8 g/L), Magnesium Chloride (Anhydrous) 1 mM (0.095 g/L), Calcium Chloride 2 mM (0.222 g/L), HEPES 10 mM (2.38 g/L) in water. […]

Chain of human NaV 1.8 (Q9Y5Y9 126-1722 limits assumed): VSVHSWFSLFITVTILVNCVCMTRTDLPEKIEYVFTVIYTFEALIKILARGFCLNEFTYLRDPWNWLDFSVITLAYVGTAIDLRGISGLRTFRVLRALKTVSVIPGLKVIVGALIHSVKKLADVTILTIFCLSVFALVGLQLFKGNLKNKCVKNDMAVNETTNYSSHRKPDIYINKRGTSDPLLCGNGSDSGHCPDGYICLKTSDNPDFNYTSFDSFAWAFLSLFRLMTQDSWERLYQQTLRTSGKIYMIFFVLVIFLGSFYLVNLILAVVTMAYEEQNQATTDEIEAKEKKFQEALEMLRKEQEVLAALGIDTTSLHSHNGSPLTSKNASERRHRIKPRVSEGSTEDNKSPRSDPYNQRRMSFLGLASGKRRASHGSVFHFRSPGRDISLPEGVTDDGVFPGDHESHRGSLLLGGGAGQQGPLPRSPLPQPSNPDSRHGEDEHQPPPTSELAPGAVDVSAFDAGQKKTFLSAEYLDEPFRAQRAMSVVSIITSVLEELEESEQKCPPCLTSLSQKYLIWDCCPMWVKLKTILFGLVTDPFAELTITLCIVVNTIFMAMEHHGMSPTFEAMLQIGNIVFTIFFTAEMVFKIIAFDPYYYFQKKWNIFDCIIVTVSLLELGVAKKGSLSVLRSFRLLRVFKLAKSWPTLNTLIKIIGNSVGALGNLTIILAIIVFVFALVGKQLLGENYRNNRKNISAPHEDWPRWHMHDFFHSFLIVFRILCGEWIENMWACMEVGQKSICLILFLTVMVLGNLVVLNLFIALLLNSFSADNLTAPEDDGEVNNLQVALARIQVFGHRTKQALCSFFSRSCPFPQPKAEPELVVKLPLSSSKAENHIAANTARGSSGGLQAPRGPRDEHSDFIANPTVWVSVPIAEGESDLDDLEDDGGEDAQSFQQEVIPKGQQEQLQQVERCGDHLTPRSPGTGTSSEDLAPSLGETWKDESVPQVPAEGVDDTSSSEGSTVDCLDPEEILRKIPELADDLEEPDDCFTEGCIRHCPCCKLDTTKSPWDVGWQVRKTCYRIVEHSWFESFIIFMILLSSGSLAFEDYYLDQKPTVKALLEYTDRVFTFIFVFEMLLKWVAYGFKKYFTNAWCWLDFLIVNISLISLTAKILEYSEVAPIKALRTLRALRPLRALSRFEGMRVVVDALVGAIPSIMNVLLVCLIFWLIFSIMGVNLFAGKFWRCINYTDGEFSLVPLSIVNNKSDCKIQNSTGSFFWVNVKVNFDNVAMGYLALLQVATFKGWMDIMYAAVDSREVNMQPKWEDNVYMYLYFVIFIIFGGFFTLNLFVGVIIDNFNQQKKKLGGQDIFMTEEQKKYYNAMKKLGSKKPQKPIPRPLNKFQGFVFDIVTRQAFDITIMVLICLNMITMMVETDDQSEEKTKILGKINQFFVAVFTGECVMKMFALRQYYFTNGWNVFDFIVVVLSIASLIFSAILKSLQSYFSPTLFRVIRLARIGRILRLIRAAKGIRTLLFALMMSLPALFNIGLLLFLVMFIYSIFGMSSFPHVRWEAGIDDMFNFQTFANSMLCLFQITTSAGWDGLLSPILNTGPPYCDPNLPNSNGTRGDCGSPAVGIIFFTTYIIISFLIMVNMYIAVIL

For the compound `COc1c([C@@H]2C[C@](C)(C(F)(F)F)O[C@H]2C(=O)Nc2ccc([C@@H](O)CO)nc2)ccc(F)c1F` (relative stereo) [Compound 24, rel-(2R,3S,5R)-3-(3,4-difluoro-2-methoxyphenyl)-N-(6-((R*)-1,2-dihydroxyethyl)pyridin-3-yl)-5-methyl-5-(trifluoromethyl)tetrahydrofuran-2-carboxamide], the IC50 (commonly the midpoint of a concentration-inhibition curve) lay within 0.1 to 1 µM.

On to `COc1c([C@H]2C[C@@](C)(C(F)(F)F)O[C@@H]2C(=O)Nc2ccc([C@@H](O)CO)nc2)ccc(F)c1F` (relative stereo) [Compound 25, rel-(2S,3R,5S)-3-(3,4-difluoro-2-methoxyphenyl)-N-(6-((R*)-1,2-dihydroxyethyl)pyridin-3-yl)-5-methyl-5-(trifluoromethyl)tetrahydrofuran-2-carboxamide], for which the half-maximal inhibitory concentration (IC50) was no less than 1 µM.

For `COc1c([C@H]2[C@H](C(=O)Nc3ccc(C(C)O)nc3)O[C@@](C)(C(F)(F)F)[C@H]2C)ccc(F)c1C(F)F` (relative stereo) [Compound 56, rel-(2R,3S,4S,5R)-3-(3-(difluoromethyl)-4-fluoro-2-methoxyphenyl)-N-(6-(1-hydroxyethyl)pyridin-3-yl)-4,5-dimethyl-5-(trifluoromethyl)tetrahydrofuran-2-carboxamide], the half-maximal inhibitory concentration (IC50) was in the range of 0.01 to 0.1 µM.

For the compound `COc1c([C@H]2[C@H](C(=O)Nc3ccc([C@H](O)CO)[n+]([O-])c3)O[C@@](C)(C(F)(F)F)[C@H]2C)ccc(F)c1C` (relative stereo) [Compound 59, rel-2-((S*)-1,2-dihydroxyethyl)-5-((2R,3S,4S,5R)-3-(4-fluoro-2-methoxy-3-methylphenyl)-4,5-dimethyl-5-(trifluoromethyl)tetrahydrofuran-2-carboxamido)pyridine 1-oxide], the IC50 is 0.01 to 0.1 µM.

In the case of `COc1c([C@H]2[C@H](C(=O)Nc3ccc([C@@H](O)CO)nc3)O[C@@](C)(C(F)(F)F)[C@H]2C)ccc(F)c1F` (single isomer, unassigned) [Compound 1], the IC50 was less than 0.01 µM.

`COc1c([C@H]2[C@H](C(=O)Nc3ccc([C@H](O)CO)nc3)O[C@@](C)(C(F)(F)F)[C@H]2C)ccc(F)c1F` (single isomer, unassigned) [Compound 2]: the half-maximal inhibitory concentration (IC50) was less than 0.01 µM.

On to `COc1c([C@H]2[C@H](C(=O)Nc3ccc([C@@H](O)[C@@H](C)O)nc3)O[C@@](C)(C(F)(F)F)[C@H]2C)ccc(F)c1F` (single isomer, unassigned) [Compound 3, rel-(2R*,3S*,4S*,5R*)-3-(3,4-difluoro-2-methoxyphenyl)-N-(6-((1R,2R)-1,2-dihydroxypropyl)pyridin-3-yl)-4,5-dimethyl-5-(trifluoromethyl)tetrahydrofuran-2-carboxamide], for which the IC50 is less than 0.01 µM.

As for `COc1c([C@H]2[C@H](C(=O)Nc3ccc([C@H](O)[C@H](C)O)nc3)O[C@@](C)(C(F)(F)F)[C@H]2C)ccc(F)c1F` (single isomer, unassigned) [Compound 4, rel-(2R*,3S*,4S*,5R*)-3-(3,4-difluoro-2-methoxyphenyl)-N-(6-((1S,2S)-1,2-dihydroxypropyl)pyridin-3-yl)-4,5-dimethyl-5-(trifluoromethyl)tetrahydrofuran-2-carboxamide], the IC50 is less than 0.01 µM.

Turning to `COc1c(C2C(C(=O)Nc3cnc(C(O)CO)nc3)OC(C)(C(F)(F)F)C2C)ccc(F)c1F` (single isomer, unassigned) [Compound 11], the IC50 is less than 0.01 µM.

As for `COc1c(C2C(C(=O)Nc3cnc(C(O)CO)nc3)OC(C)(C(F)(F)F)C2C)ccc(F)c1F` (single isomer, unassigned) [Compound 12], the IC50 was in the range of 0.01 to 0.1 µM.

On to `COc1c([C@H]2[C@H](C(=O)Nc3ccc(C(O)CF)nc3)O[C@@](C)(C(F)(F)F)[C@H]2C)ccc(F)c1F` (single isomer, unassigned) [Compound 16, rel-(2R*,3S*,4S*,5R*)-3-(3,4-difluoro-2-methoxyphenyl)-N-(6-(2-fluoro-1-hydroxyethyl)pyridin-3-yl)-4,5-dimethyl-5-(trifluoromethyl)tetrahydrofuran-2-carboxamide], for which the IC50 is less than 0.01 µM.

`COc1c(C2C(C(=O)Nc3ccc(C(O)CF)nc3)OC(C)(C(F)(F)F)C2C)ccc(F)c1F` (single isomer, unassigned) [Compound 17, rel-(2R*,3S*,4S*,5R*)-3-(3,4-difluoro-2-methoxyphenyl)-N-(6-(2-fluoro-l-hydroxyethyl)pyridin-3-yl)-4,5-dimethyl-5-(trifluoromethyl)tetrahydrofuran-2-carboxamide] showed a concentration for half-maximal inhibition (IC50) of 0.01 to 0.1 µM.

`COCC(O)c1ccc(NC(=O)[C@@H]2O[C@@](C)(C(F)(F)F)[C@@H](C)[C@H]2c2ccc(F)c(F)c2OC)cn1` (single isomer, unassigned) [Compound 20, rel-(2R*,3S*,4S*,5R*)-3-(3,4-difluoro-2-methoxyphenyl)-N-(6-(1-hydroxy-2-methoxyethyl)pyridin-3-yl)-4,5-dimethyl-5-(trifluoromethyl)tetrahydrofuran-2-carboxamide] showed an IC50 of 0.01 to 0.1 µM.

Regarding `COCCC(O)c1ccc(NC(=O)[C@@H]2O[C@@](C)(C(F)(F)F)[C@@H](C)[C@H]2c2ccc(F)c(F)c2OC)cn1` (single isomer, unassigned) [Compound 22, rel-(2R*,3S*,4S*,5R*)-3-(3,4-difluoro-2-methoxyphenyl)-N-(6-(1-hydroxy-3-methoxypropyl)pyridin-3-yl)-4,5-dimethyl-5-(trifluoromethyl)tetrahydrofuran-2-carboxamide], the IC50 is 0.01 to 0.1 µM.

The compound `COCCC(O)c1ccc(NC(=O)[C@@H]2O[C@@](C)(C(F)(F)F)[C@@H](C)[C@H]2c2ccc(F)c(F)c2OC)cn1` (single isomer, unassigned) [Compound 23, rel-(2R*,3S*,4S*,5R*)-3-(3,4-difluoro-2-methoxyphenyl)-N-(6-(1-hydroxy-3-methoxypropyl)pyridin-3-yl)-4,5-dimethyl-5-(trifluoromethyl)tetrahydrofuran-2-carboxamide] came in with a half-maximal inhibitory concentration (IC50) of 0.1 to 1 µM.

Compound `COc1c([C@@H]2C[C@](C)(C(F)(F)F)O[C@H]2C(=O)Nc2ccc([C@H](O)CO)nc2)ccc(F)c1F` (single isomer, unassigned) [Compound 26, rel-(2R,3S,5R)-3-(3,4-difluoro-2-methoxyphenyl)-N-(6-((S*)-1,2-dihydroxyethyl)pyridin-3-yl)-5-methyl-5-(trifluoromethyl)tetrahydrofuran-2-carboxamide] displayed an IC50 of 0.1 to 1 µM.

Compound `COc1c([C@H]2C[C@@](C)(C(F)(F)F)O[C@@H]2C(=O)Nc2ccc([C@H](O)CO)nc2)ccc(F)c1F` (single isomer, unassigned) [Compound 27, rel-(2S,3R,5S)-3-(3,4-difluoro-2-methoxyphenyl)-N-(6-((S*)-1,2-dihydroxyethyl)pyridin-3-yl)-5-methyl-5-(trifluoromethyl)tetrahydrofuran-2-carboxamide] gave a 50% inhibitory concentration (IC50) of no less than 1 µM.

With `COc1c([C@H]2C[C@@](C)(C(F)(F)F)O[C@@H]2C(=O)Nc2cnc(C(O)CO)nc2)ccc(F)c1F` (single isomer, unassigned) [Compound 28], the IC50 is no less than 1 µM.

For `COc1c([C@@H]2C[C@](C)(C(F)(F)F)O[C@H]2C(=O)Nc2cnc(C(O)CO)nc2)ccc(F)c1F` (single isomer, unassigned) [Compound 29], the IC50 lay in the range of 0.1 to 1 µM.
